Assay results from patent US20050042291A1, “Diffusion layer modulated solids” (priority 2003, published 2005).
Converted amounts (≈) assume the structure as drawn. Counter-ions that a name gives are not always drawn. Like-named read-outs stand apart in the source and are kept apart here.

What was measured:
[1] = Intrinsic dissolution rate of co-compressed pellets, fiber optic automated rotating disk dissolution method; type: physicochemical; settings: for Percent dissolved in 60 minutes at pH 6: pH 6 (0.01 M phosphate) with 0.6% SLS
Protocol: The 0.48 cm ( 3/16 inch) HSS rod was inserted into the die to a distance of 1.9 cm (¾ inch), leaving 0.64 (¼ inch) for placement of 20±1 mg of the drug or drug mixture into the 0.48 cm ( 3/16 inch) diameter hole.
After adding the drug, the punch (or HSS rod) was inserted into the die and the entire die assembly was placed into a 3-bolt holder that was used to hold a 0.64 cm (¼ inch) SS base plate firmly against the powder bed during compression in the die. Compression of the powder was achieved on a Carver press using a stepwise increase in the force up to 4450 newtons (1000 pounds force) (i.e., 255 MPa (37000 psi)) and then a progressive decrease in pressure as described in the following. A force of 1110 newtons (250 pounds force) was applied for approximately 10 seconds and the pressure was removed. This was repeated at 2220 newtons (500 pounds force), 3330 newtons (750 pounds force), and 4450 newtons (1,000 pounds force). The 4450 newtons (1000 pounds force) (i.e., 255 MPa (37000 psi)) was applied again and maintained for 1 minute. The pressure was decreased stepwise by simply lowering the pressure and then holding it at 3330 newtons (750 pounds force) for 10 seconds and repeating this at 2220 newtons (500 pounds force), 1110 newtons (250 pounds force) and, finally, the pressure was removed.
The die and holder was removed from the Carver press and the punch (or HSS rod) was twisted to loosen the rod and to allow the pellet to relax or expand from the backside. After a three minute (minimum) relaxation period, the set-screw on the HSS rod was firmly secured to the die.
The entire punch and die assembly containing the drug pellet with one face of the drug pellet exposed was removed as a unit from the holder and the intrinsic dissolution rate was determined as described below.
The HSS rod in the die containing the drug compact with one face of the drug pellet exposed was attached to an electric motor with a fixed speed of 300 revolutions per minute (rpm). The die was rotated (300 rpm) while the die (containing the drug pellet) was lowered at t=0 into the center of the dissolution vessel consisting of a jacketed 800 mL beaker (Pyrex, No.1000) containing 500 mL of the desired de-gassed (house vacuum, 3 minutes) dissolution medium maintained at 37±0.5° C. The dissolution medium consisted of either dilute HCl (0.01, 0.001 or 0.0001 N HCl) or pH 6, 0.01 M phosphate containing 0.6% SLS (sodium lauryl sulfate). The die was positioned such that the drug compact was approximately 6.4 cm (2.5 inches) from the bottom of the 500 mL dissolution beaker and approximately the same distance from the liquid surface. Continuous monitoring by ultraviolet (UV) spectroscopy was conducted by the fiber optic UV automated dissolution method or samples were taken automatically by the HPLC sampling method as described below.
The Fiber Optic Dissolution System. The fiber optic UV automated dissolution system employed an Ocean Optics PC Model 1000 fiber optic spectrophotometer connected to a 120 mHz Pentium computer. The dissolution process was monitored continuously at 290 nm with the fiber optic probe with 5-10 data points taken per minute. The data was processed automatically with a Visual Basic application program that allowed the data to be collected automatically from the spectrophotometer.
The delavirdine mesylate intrinsic dissolution rate profile was plotted in Excel and the intrinsic dissolution rate was calculated automatically by the program. The dissolution period was usually 15 minutes, but could be as short as approximately 1 minute, or as long as a few hours.
Calculation of the Intrinsic Dissolution Rate.

[2] = Rat oral bioavailability of tipranavir disodium spray dried powders; type: in vivo; settings: plasma, 20 mg/kg
Protocol: HPLC analysis of tipranavir in the rat plasma samples following administration of the various tipranavir disodium spray dried powders was conducted using an RP 8 column (Zorbax, DuPont) with a mobile phase consisting of methanolaqueous 0.05 M formate buffer, pH 4 ([…]).
The rat oral bioavailability of tipranavir disodium spray dried powders as well as the parent tipranavir disodium bulk drug were administered by intubation of the powders using a group of 7-8 rats (250-290 g) obtained from Taconic (Germantown, N.Y.). Intubation was achieved using a 10 cm (4 inch) section of Teflon tubing, […], containing a piece of cheese (American, fat free) inserted into the bottom of the tubing. The desired tipranavir disodium powdered bulk drug was placed into the tube and the tube was inserted into the stomach of the rat. The drug was displaced from the Teflon tubing and into the stomach by passing 2 ml of water through the tubing. The dose was 20 mg/kg in all cases.
The blood samples were processed with precipitation of the proteins with acetonitrile followed by centrifugation. The samples were assayed as described above.

Solubility = type: physicochemical; settings: water, pH 6, water

CC(C)Nc1cccnc1N1CCN(C(=O)c2cc3cc(NS(C)(=O)=O)ccc3[nH]2)CC1 [Delavirdine Mesylate, delavirdine mesylate]
IDR, pH 2 0.01 N HCl ([1]; pH 2 0.01 N HCl, 37° C., 300 rpm, observed): 220 micrograms · cm^−2 · sec^−1 | Percent of pellet dissolved at pH 2 ([1]; pH 2 (0.01 N) HCl, 37° C., dissolution then stops): approximately 60% | Percent dissolved in 60 minutes at pH 6 ([1]; 20 mg pellet, listed as Delavirdine mesylate alone): approximately 2% | Percent dissolved in 60 minutes at pH 6 ([1]; 20 mg pellet, listed as pure delavirdine mesylate): less than 1% | IDR, pH 6 with 0.5% SLS ([1]; pH 6 with 0.5% SLS, 37° C., 300 rpm, observed): 2 micrograms · cm^−2 · sec^−1 | Percent dissolved in less than 10 minutes at pH 6 ([1]; pH 6 with 0.6% SLS, less than 10 minutes, 20 mg pellet): less than 1%

CCC[C@@]1(CCc2ccccc2)CC(O)=C([C@H](CC)c2cccc(NS(=O)(=O)c3ccc(C(F)(F)F)cn3)c2)C(=O)O1 [Tipranavir Disodium bulk drug, tipranavir disodium]
AUC(0-inf) ([2]; fasted, read-out: AUCInf, fasted): 23400 ng·h/mL | AUC(0-inf) ([2]; fed, read-out: AUCInf, fed): 45800 ng·h/mL

CCC[C@@]1(CCc2ccccc2)CC(O)=C([C@H](CC)c2cccc(NS(=O)(=O)c3ccc(C(F)(F)F)cn3)c2)C(=O)O1 [tipranavir]
solubility (Solubility): 5 to 10 µg/mL (≈ 8.3 to 16.6 µM)
